# Laboratory results published in patent publication US20140263071A1, “METHOD FOR COLLECTING METALS” (CHEMEC OY AB, priority 2011, published 2014).
# Marks after values point to notes of the source that are not given here.
# How the values were obtained:
# [1] = Optimal expulsion pH range with minimum expulsion percent, single elements (Example 7)
# Protocol: (§1) A water solution (110 ml) containing known amount of single cationic element or elements, typically 0.5-200 ppm, was prepared from Merch Titrisol® standard solution. After adjusting pH by using acid (e.g. HCl or HNO3) or base (e.g. NaOH) to desired initial value, sample A (10 ml) was taken followed by adding 100 mg of selected solid complexation agent. The mixture was stirred at room temperature for 24 h and sample B (10 ml) was taken. Samples A and B were filtrated separately trough 0.2 μm syringe filter and the concentration of the studied element or elements in both solution was determined by using atomic absorption spectrophotometer. The expulsion percent was determined from the concentration differences between the sample solutions A and B.
# Using the above mentioned general procedure optimal expulsion pH ranges for each metal with complexation agent 1a was determined. For each element the expulsion percent was determined in 5-14 different pH value. The obtained results are shown in table below with minimum expulsion percent inside the optimal pH range.
# [2] = Collection capacity (Example 10); conditions: 100 ppm starting concentration
# Protocol: as §1
# Capacity of 1a to collect selected metals were determined following the general procedure described above by using 100 ppm starting metal concentration in each experiment and 1a (100 mg) at selected pH. Amounts of removed metals from the mixture were determined by using AAS. Results are collected in table 5 and are given in mg of metal bound to 1 g of 1a.
# [3] = Separation of Cr(III) from Cr(VI) (Example 14); conditions: pH 4.0, 1a 100 mg
# Protocol: as §1
# An aqueous solution (100 ml) containing 1.72 ppm of Cr(III) and 1.89 ppm of Cr(VI) was prepared from Merch Titrisol® standard solution and pH was adjusted to 4.0. Following the general procedure described earlier the mixture was treated with 1a (100 mg) and expulsion per for Cr(III) and Cr(VI) were calculated to be 97.0% and 0%, respectively.
# [4] = Removal of Cr^3+ from acidic solution, TS 4 diluted 1:100 (Example 19); conditions: TS 4 diluted 1:100, pH 3.67, 1.0 g agent in 50 ml, 24 h
# Protocol: A test solution containing 24000 mg/l of Na^+; 50-2000 mg/l of Ca^2+, Cr^3+, K^+ and Mg^2+; and trace amount of Al^3+, Fe^2/3+, Mn^2+, Ni^2+, Sr^2+, V^4+, and Zn^2+ cations were prepared.
# TS 4 was diluted to 1:100 with water, pH (3.67) of the solution was determined and sample A was taken. A part (50 ml) of the diluted solution was treated with 1a, 6d or 7a (1.0 g) for 24 h with stirring at room temperature. After filtration trough 0.2 μm syringe filter, the expulsion per for Cr(III) was determined compared to original solution A. The results of expulsion per cents of Cr^3+ and some other elements are given in Table 13.
smiles,measurement,setting,value
"NCCCCCCCCCCC(O)(P(=O)(O)O)P(=O)(O)O [Compound 1a, 11-Amino-1-hydroxyundecane-1,1-diyldiphosphonic acid]",Expulsion [%],"[1]; Ag^+, minimum within pH range 1.5-12",>84%
same,Expulsion [%],"[1]; Al^3+, minimum within pH range 1-2",>96%
same,Expulsion [%],"[1]; Au^3+, minimum within pH range 0-2",>39%
same,Expulsion [%],"[1]; Ba^2+, minimum within pH range 3-12",>75%
same,Expulsion [%],"[1]; Bi^3+, minimum within pH range 0.5-4",100%
same,Expulsion [%],"[1]; Ca^2+, minimum within pH range 4-12",>50%
same,Expulsion [%],"[1]; Cd^2+, minimum within pH range 3-11",>36%
same,Expulsion [%],"[1]; Co^2+, minimum within pH range 4-11",>77%
same,Expulsion [%],"[1]; Cr^3+, minimum within pH range 2.5-12",>60%
same,Expulsion [%],"[1]; Cr^6+, As^3/5+, Ta^5+, within pH range 0-12",<8%
same,Expulsion [%],"[1]; Cu^2+, minimum within pH range 3-11",>87%
same,Expulsion [%],"[1]; Cu^+, minimum within pH range 3-11",>79%
same,Expulsion [%],"[1]; Eu^3+, minimum within pH range 2-8",70%
same,Expulsion [%],"[1]; Fe^2+, minimum within pH range 3-10",>79%
same,Expulsion [%],"[1]; Fe^3+, minimum within pH range 1-11",>55%
same,Expulsion [%],"[1]; Ga^3+, minimum within pH range 0.5-1",100%
same,Expulsion [%],"[1]; Ga^3+, minimum within pH range 6-11",>90%
same,Expulsion [%],"[1]; Hg^2+, minimum within pH range 2-11",>90%
same,Expulsion [%],"[1]; Hg^+, minimum within pH range 2-11",>80%
same,Expulsion [%],"[1]; Ir^3+, minimum within pH range 0.0-0.5",>65%
same,Expulsion [%],"[1]; La^3+, minimum within pH range 0-3.8",>40%
same,Expulsion [%],"[1]; Li^+, Na^+, K^+, within pH range 0-12",<5%
same,Expulsion [%],"[1]; Mg^2+, minimum within pH range 4-12",>74%
same,Expulsion [%],"[1]; Mn^2+, minimum within pH range 4-10",>69%
same,Expulsion [%],"[1]; Mo^6+, minimum within pH range 4-10",>55%
same,Expulsion [%],"[1]; Nb^5+, minimum within pH range 0-12",>40%
same,Expulsion [%],"[1]; Nd^3+, minimum within pH range 2-8",>75%
same,Expulsion [%],"[1]; Ni^2+, minimum within pH range 4-11",>40%
same,Expulsion [%],"[1]; Os^4+, minimum within pH range 5-7",>40%
same,Expulsion [%],"[1]; Pb^2+, minimum within pH range 2-9",>79%
same,Expulsion [%],"[1]; Pd^2+, minimum within pH range 7-12",>65%
same,Expulsion [%],"[1]; Pt^2+, minimum within pH range 0-1",>60%
same,Expulsion [%],"[1]; Rh^3+, minimum within pH range 2-10",>19%
same,Expulsion [%],"[1]; Ru^3+, minimum within pH range 2-11",>55%
same,Expulsion [%],"[1]; Sb^3+, minimum within pH range 0.5-11",>75%
same,Expulsion [%],"[1]; Sc^3+, minimum within pH range 0-12",>80%
same,Expulsion [%],"[1]; Si^4+, Se^4/6+, within pH range 0-12",<2%
same,Expulsion [%],"[1]; Sn^2+, minimum within pH range 8-10",100%
same,Expulsion [%],"[1]; Sn^4+, minimum within pH range 7-11",>91%
same,Expulsion [%],"[1]; Sr^2+, minimum within pH range 4-12",>80%
same,Expulsion [%],"[1]; Ti^4+, minimum within pH range 10-12",>35%
same,Expulsion [%],"[1]; V^4+, minimum within pH range 0-0.5",>30%
same,Expulsion [%],"[1]; W^6+, minimum within pH range 0.5-3",>12%
same,Expulsion [%],"[1]; Y^3+, minimum within pH range 1.5-4 >10",>60%
same,Expulsion [%],"[1]; Zn^2+, minimum within pH range 4-11",>75%
same,Expulsion [%],"[1]; Zr^4+, minimum within pH range 0-4.8-10",60%
same,Capacity,"[2]; Ag^+, pH 2.5",94.6 mg/g
same,Capacity,"[2]; Au^3+, pH 4.0",19.0 mg/g
same,Capacity,"[2]; Ca^2+, pH 4.0",50.9 mg/g
same,Capacity,"[2]; Cd^2+, pH 4.0",74.1 mg/g
same,Capacity,"[2]; Co^2+, pH 4.5",85.5 mg/g
same,Capacity,"[2]; Cr^3+, pH 3.5",9.9 mg/g
same,Capacity,"[2]; Cu^2+, pH 4.0",61.6 mg/g
same,Capacity,"[2]; Fe^2+, pH 3.0",82.7 mg/g
same,Capacity,"[2]; Fe^3+, pH 3.0",15.2 mg/g
same,Capacity,"[2]; Mo^6+, pH 9.1",97.2 mg/g
same,Capacity,"[2]; Ni^2+, pH 4.0",13.1 mg/g
same,Capacity,"[2]; Pb^2+, pH 4.0",85.6 mg/g
same,Capacity [mg/g],"[2]; Sc^3+, pH 2.0",16.9^1) mg/g
same,Capacity,"[2]; Zn^2+, pH 4.0",70.9 mg/g
same,expulsion per cent for Cr(III),[3]; 1.72 ppm Cr(III) with 1.89 ppm Cr(VI),97.0%
same,expulsion per cent for Cr(VI),[3]; 1.89 ppm Cr(VI) with 1.72 ppm Cr(III),0%
same,Expulsion [%] Ca^2+,[4]; Ca^2+,67%
same,Expulsion [%] Cr^3+,[4]; Cr^3+,91%
same,Expulsion [%] K^+,[4]; K^+,36%
same,Expulsion [%] Mg^2+,[4]; Mg^2+,74%
same,Expulsion [%] Na^+,[4]; Na^+,14%
same,Expulsion [%] Zn^2+,[4]; Zn^2+,>39^1) %
